Drawing on patent publication US20090181972A1, “Novel Inhibitors of Cysteine Proteases, the Pharmaceutical Compositions Thereof and their Therapeutic Applications” (priority 2005, published 2009), this text covers IC50 and GI50 for 5 molecules.

The target in experiment [1] is T1, USP7 (Homo sapiens, UniProt Q93009).
T1 construct: His tag (pFastBac-HT vector) (N); made in house; host or cells: Sf9 or High Five insect cells (baculovirus)
Nature of the experiment: USP7 activity assay. The note with it: 400 nM Ub-AMC, 152 pM enzyme; pre-incubated 30 minutes at 25° C., 60 minutes at 37° C.; sigmoidal fit; read-out: USP 7. The experiment is classed as biochemical. The text has this: The cDNA encoding USP7 was obtained by PCR amplification from placenta mRNA. USP7 cDNA was subcloned by PCR into a baculovirus expression vector (pFastBac-HT; Invitrogen). A cDNA encoding a mutated USP7 was generated by mutagenic PCR. The corresponding protein encodes a cysteine to alanine substitution at residue 223. The sequences were ascertained by sequencing of the entire open reading frame. Bacmids encoding USP7 were generated following DH10bac transposition. The corresponding bacmids were transfected into insect cells (Sf9). Viruses were recovered from culture supernatant and amplified twice. Insect cells (Sf9 or High Five; lnvitrogen) were infected for 72 hours. Total cell lysates were harvested and lyzed in lysis buffer (Tris HCl 50 mM pH 7.6; 0.75 % NP40; 500 mM NaCl; 10% glycerol; 1 mM DTT; 10 mM imidazole; Protease Inhibitor Cocktail; AEBSF 20 μg.ml^−1; Aprotinin 10 μg.ml^−1). Proteins were affinity purified on metal affinity resins (Talon Metal affinity resin; BD Biosciences). Bound materials were extensively washed in wash buffer (50 mM Sodium Phosphate pH 7.0; 300 mM NaCl; 10 mM imidazole; 0.5% Triton X-100; 10% glycerol) and eluted from the resin in 250 mM imidazole-containing wash buffer. Proteins were dialyzed in dialysis buffer (Tris HCl pH 7.6 20 mM; NaCl 200 mM; DTT 1 mM; EDTA 1 mM; 10% Glycerol). Proteins purifications were analyzed on 4-12% NuPAGE (Invitrogen).
USP7 was diluted in USP buffer (50 mM Tris HCl; 0.5 mM EDTA; 5 mM DTT; 0.01 % Triton X-100; Bovine Serum Albumin 0.05 mg.ml^−1 pH 7.6). Compounds stocks (100 mM) were stored at −20° C. in DMSO. Compounds were tested at the following final concentrations: 100 μM; 33.3 μM; 11.1 μM; 3.7 μM; 1.23 μM; 412 nM; 137 nM; 45.7 nM; 15.2 nM; 5 nM.
(§1) Reactions were performed as duplicates in Black LJL 96 well plates (HE microplates; Molecular Devices; 20 μl final reaction volume). The substrate concentration for USP7 was 400 nM Ub-AMC (Chem. Biol., 2003, 10, p. 837-846) (Boston Biochem). The concentrations of the enzyme (USP7) in specificity assays was 152 pM. The concentrations were determined in order to perform specificity assays under initial velocities at fixed substrate concentration. Compounds were pre-incubated with enzymes for 30 minutes at 25° C. Reactions were initiated by addition of substrate to the plates containing the enzymes (+/− compounds) diluted in assay buffer. Reactions were incubated for 60 minutes at 37° C. Reactions were stopped by adding acetic acid (100 mM final). Readings were performed on a Pherastar Fluorescent Reader (BMG). λ Emission 380 nm; λ Excitation=460 nm. Data (mean values +/− standard deviation) were analyzed as % of control (no compound) and plotted as percentage versus the Log of the compound concentration using GraphPad (Prism). Data were fitted to a sigmoidal model (variable slope).

For experiment [2], the target named is T2, USP5 (Homo sapiens, UniProt P45974).
T2 sequence (P45974 1-858): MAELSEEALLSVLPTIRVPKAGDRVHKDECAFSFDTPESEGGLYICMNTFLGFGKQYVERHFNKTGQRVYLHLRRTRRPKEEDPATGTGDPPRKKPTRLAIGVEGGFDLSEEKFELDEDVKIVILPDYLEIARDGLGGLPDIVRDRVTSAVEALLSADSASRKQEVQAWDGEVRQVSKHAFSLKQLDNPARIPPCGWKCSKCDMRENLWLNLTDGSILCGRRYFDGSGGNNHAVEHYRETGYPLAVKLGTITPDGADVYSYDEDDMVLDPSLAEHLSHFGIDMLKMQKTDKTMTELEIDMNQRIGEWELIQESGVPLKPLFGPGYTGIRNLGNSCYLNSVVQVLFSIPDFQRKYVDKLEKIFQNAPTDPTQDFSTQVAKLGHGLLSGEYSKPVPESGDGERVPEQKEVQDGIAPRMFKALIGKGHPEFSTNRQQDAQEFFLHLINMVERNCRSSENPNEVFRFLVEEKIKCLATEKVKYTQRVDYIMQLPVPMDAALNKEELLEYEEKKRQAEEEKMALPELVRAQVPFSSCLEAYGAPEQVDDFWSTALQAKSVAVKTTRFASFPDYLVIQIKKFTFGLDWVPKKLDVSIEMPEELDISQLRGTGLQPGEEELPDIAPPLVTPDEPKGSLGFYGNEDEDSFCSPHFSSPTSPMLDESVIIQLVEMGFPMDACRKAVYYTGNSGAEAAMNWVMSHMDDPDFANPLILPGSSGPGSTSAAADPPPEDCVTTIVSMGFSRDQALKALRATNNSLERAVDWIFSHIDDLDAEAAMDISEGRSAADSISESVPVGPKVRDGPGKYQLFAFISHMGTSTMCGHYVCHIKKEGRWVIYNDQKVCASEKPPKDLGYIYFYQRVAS
Nature of the experiment: USP5 activity assay. The experiment is classed as biochemical. Conditions: 400 nM Ub-AMC, 300 pM enzyme; pre-incubated 30 minutes at 25° C., 60 minutes at 37° C.; sigmoidal fit; read-out: USP 5. How it is done:
USP5 was diluted in USP buffer (50 mM Tris HCl; 0.5 mM EDTA; 5 mM DTT; 0.01% Triton X-100; Bovine Serum Albumin 0.05 mg.ml^−1 pH 7.6). Compounds stocks (100 mM) were stored at -20° C. in DMSO.
as §1, with “USP5” for “USP7”, “Ub-AMC” for “Ub-AMC (Chem. Biol., 2003, 10, p. 837-846)”, “(USP5)” for “(USP7)”, “300” for “152”

Experiment [3] has as its system HCT116 colon cancer cells. Nature of the experiment: HCT116 cell viability and proliferation assay (MTS). The experiment is classed as cell-based. The note with it: Homo sapiens, HCT-116, 72 hours incubation, mean of three independent experiments, read-out: HCT116 GI50 D3. How it is done:
HCT116 colon cancer cells were obtained from ATCC (American Type Culture Collection), and maintained in Mc Coy's 5A medium containing 10% FBS, 3 mM glutamine and 1% penicillin/streptomycin. Cells were incubated at 37° C. in a humidified atmosphere containing 5% CO2.
Cell viability was assayed using the MTS technique in 96-well culture plates (CellTiter 96® Aqueous Non-Radioactive Cell Proliferation Assay, Promega) according to the manufacturer's instructions. MTS (3-(4,5-dimethyl-thiazol-2-yl)-5-(3-carboxymethoxyphenyl)-2-(4-sulfophenyl)-2H-tetra-zolium) is a MTT-derived tetrazolium that is reduced in metabolically active cells into a soluble, cell-permeant formazan. The amount of formazan, detected by its absorbance at 492 nm is proportional to the number of living, metabolically active cells.
10^3 HCT116 cells were seeded per well. 24 hours later, the medium was changed and the cells treated in triplicate with the following concentrations of each compound: 10 μM-3.33 μM-1.11 μM-370 nM-123 nM-41 nM-14 nM and 5 nM. The compounds were diluted in 100% DMSO, whose final concentration on cells was kept at 0.5%.
Cells were incubated with the compounds for 72 hours, and their viability then assayed by the addition of MTS for 2 hours. Absorbance at 492 nm was measured directly from the 96-well culture plates. G150 (Growth Inhibition 50) concentrations for each compound were calculated using a sigmoidal variable slope fit (Prism 4.0, Graphpad Softwares). Values represent mean of three independent experiments.

The test system of experiment [4] is PC-3 prostate cancer cells. Nature of the experiment: PC3 cell viability and proliferation assay (MTS). The note with it: Homo sapiens, PC-3, 72 hours incubation, mean of three independent experiments, read-out: PC3 GI50 D3. It counts as cell-based. How it is done: PC-3 prostate cancer cells were obtained from ATCC, and maintained in F-12K medium containing 7% FBS and 1% penicillin/streptomycin. Cells were incubated at 37° C. in a humidified atmosphere containing 5% CO2.
Cell viability was assayed using the MTS technique in 96-well culture plates (CellTiter 96® Aqueous Non-Radioactive Cell Proliferation Assay, Promega) according to the manufacturer's instructions. MTS (3-(4,5-dimethyl-thiazol-2-yl)-5-(3-carboxymethoxyphenyl)-2-(4-sulfophenyl)-2H-tetrazolium) is a MTT-derived tetrazolium that is reduced in metabolically active cells into a soluble, cell-permeant formazan. The amount of formazan, detected by its absorbance at 492 nm is proportional to the number of living, metabolically active cells.
2×10^3 PC3 cells were seeded per well. 24 hours later, the medium was changed and the cells treated in triplicate with the following concentrations of each compound: 10 μM-3.33 μM-1.11 μM-370 nM-123 nM-41 nM-14 nM and 5 nM. The compounds were diluted in 100% DMSO, whose final concentration on cells was kept at 0.5%.
Cells were incubated with the compounds for 72 hours, and their viability then assayed by the addition of MTS for 2 hours. Absorbance at 492 nm was measured directly from the 96-well culture plates. GI50 (Growth Inhibition 50) concentrations for each compound were calculated using a sigmoidal variable slope fit (Prism 4.0, Graphpad Softwares). Values represent mean of three independent experiments.

T1 sequence (Q93009 whole entry): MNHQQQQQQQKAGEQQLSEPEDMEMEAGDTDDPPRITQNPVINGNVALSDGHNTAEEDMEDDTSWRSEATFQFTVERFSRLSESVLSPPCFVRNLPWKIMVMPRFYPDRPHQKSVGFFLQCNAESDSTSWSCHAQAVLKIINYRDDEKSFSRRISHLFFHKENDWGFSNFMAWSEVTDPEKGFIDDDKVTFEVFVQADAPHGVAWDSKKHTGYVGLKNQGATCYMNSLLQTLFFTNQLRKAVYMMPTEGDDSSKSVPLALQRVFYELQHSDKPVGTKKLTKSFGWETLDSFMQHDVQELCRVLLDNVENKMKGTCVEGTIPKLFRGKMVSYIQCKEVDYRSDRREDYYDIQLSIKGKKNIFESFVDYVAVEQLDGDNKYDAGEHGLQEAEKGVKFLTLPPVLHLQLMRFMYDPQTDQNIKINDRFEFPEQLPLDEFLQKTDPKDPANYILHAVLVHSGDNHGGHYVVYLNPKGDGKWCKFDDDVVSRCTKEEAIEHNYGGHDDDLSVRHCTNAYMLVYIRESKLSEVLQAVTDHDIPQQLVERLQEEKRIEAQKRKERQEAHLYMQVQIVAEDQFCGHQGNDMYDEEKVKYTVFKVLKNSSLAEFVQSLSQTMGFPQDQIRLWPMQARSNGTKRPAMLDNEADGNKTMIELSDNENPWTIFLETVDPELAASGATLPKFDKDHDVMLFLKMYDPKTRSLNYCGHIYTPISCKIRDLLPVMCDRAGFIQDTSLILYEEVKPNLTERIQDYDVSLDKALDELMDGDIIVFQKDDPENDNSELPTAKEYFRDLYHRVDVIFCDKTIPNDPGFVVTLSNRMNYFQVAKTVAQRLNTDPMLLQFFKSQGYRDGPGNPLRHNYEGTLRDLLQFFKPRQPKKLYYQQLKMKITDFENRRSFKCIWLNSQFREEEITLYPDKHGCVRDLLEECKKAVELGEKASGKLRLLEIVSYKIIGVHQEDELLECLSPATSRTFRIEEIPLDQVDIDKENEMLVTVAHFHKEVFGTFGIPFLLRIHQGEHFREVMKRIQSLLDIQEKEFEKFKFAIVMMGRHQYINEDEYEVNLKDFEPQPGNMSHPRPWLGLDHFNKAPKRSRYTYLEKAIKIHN

For the molecule `O=C1c2ccccc2-c2nc3nn(Cc4ccccc4)nc3nc21` [Example 4b, 2-Benzyl-2H-1,2,3,4,10-pentaaza-cyclopenta[b]fluoren-9-one], the IC50 in experiment [1] and in experiment [2] was greater than 100000 nM in each case.

With `O=C1c2ccccc2-c2nn3c(C4CC4)nnc3nc21` [Example 1j/B, 3-Cyclopropyl-1,2,3a,4,10-pentaaza-cyclopenta[b]fluoren-9-one], the results for the GI50 in experiment [3] and in experiment [4] were 160 nM and 107 nM, respectively. Also, in experiment [2], the IC50 came out at 317 nM.

For the molecule `O=C1c2ccccc2-c2nc3nnc(Cc4ccccc4)n3nc21` [Example 1k/A, 1-Benzyl-2,3,4,10,10a-pentaaza-cyclopenta[b]fluoren-9-one], the IC50 in experiment [2] was 34800 nM.

As for `O=C1c2ccccc2-c2nc3nnc(C4CC4)n3nc21` [Example 1j/A, 1-Cyclopropyl-2,3,4,10,10a-pentaaza-cyclopenta[b]fluoren-9-one], the IC50 in experiment [2] came out at 3100 nM.

Consider `O=C1c2ccccc2-c2nn3c(Cc4ccccc4)nnc3nc21` [Example 1k/B, 3-Benzyl-1,2,3a,4,10-pentaaza-cyclopenta[b]fluoren-9-one], for which the 50% growth inhibitory concentration (GI50) (as a rule, the concentration giving 50% growth inhibition) in experiment [3] was found to be 149 nM; in experiment [4] it was 235 nM. In addition, in experiment [2], the IC50 is 206 nM.
